Literature values, collected in US20090005431A1, “SUBSTITUTED PYRROLIDINES” (AUSPEX PHARMACEUTICALS, INC., priority 2007, published 2009).

Tests used:
Conditions in all cases: human recombinant muscarinic receptor subtypes; cited from earlier work
[1] = system: M3 receptor compared to M1
[2] = system: M3 receptor compared to M5
[3] = system: M3 receptor compared to M2
[4] = system: M3 receptor compared to M4

Compound: NC(=O)C(c1ccccc1)(c1ccccc1)[C@@H]1CCN(CCc2ccc3c(c2)CCO3)C1 (stereo in doubt) [darifenacin, 2-{1-[2-(2,3-dihydro-benzofuran-5-yl)-ethyl]-pyrrolidin-3-yl}-2,2-diphenyl-acetamide]
- greater affinity for M3 compared to M1 [1]: 9 fold
- greater affinity for M3 compared to M5 [2]: 12 fold
- greater affinity for M3 compared to M2 [3]: 59 fold
- greater affinity for M3 compared to M4 [4]: 59 fold
